The values below come from article doi:10.1101/2024.08.19.608619, “Discovery of potent SARS-CoV-2 nsp3 macrodomain inhibitors uncovers lack of translation to cellular antiviral response” (bioRxiv, 2024).

“And” between values parts separate entries of the source, which are not always exact repeats. Equal values may be shown once. Read-outs that look alike come from different tables or passages of the source.

For one series, the system named is MDR1. Briefly: Permeability Papp (AB) MDR1/MDCKII. Conditions: dog, MDCK-MDR1, papp_a_to_b_mean, In vitro MDR1-MDCKII permeability, A to B, mean.
A further series deals with iPSC pneumocytes. Briefly: iPSC pneumocytes cytotoxicity. Conditions: for perc_max_measured: highest measured response of the dose series; for perc_min_measured: lowest measured response of the dose series. The series is classed as cell-based. An excerpt: (§1) Supplement media-1.zip/Cytotoxicity.csv, table | column: cc10; cc50; perc_min_measured; perc_max_measured
In a further series the target is T1, PKCα(h) (Homo sapiens, UniProt P17252).
T1 construct: gene PRKCA
As to the kind of experiment: biochemical. Also on record: In vitro kinase panel profiling, per cent remaining kinase activity at 10 uM. Conditions: atp_concentration=45, read-out: % of control remaining. The source says:
(§2) We derisk potential for off-target activity by profiling the compound in a CEREP panel, a standard secondary pharmacology assessment, as well as a kinase panel to derisk a potential hinge-binding motif in our leads, and a PARP panel to derisk activity against human […]. Reassuringly, the compounds are selective, with the only off-targets being moderate human CHRM2 and KOR receptors activity associated with ASAP-0011198.

For a further series, the target named is T2, MAPKAP-K2(h) (Homo sapiens, UniProt P49137).
T2 construct: gene MAPKAPK2
Briefly: biochemical. The settings on record: atp_concentration=90, read-out: % of control remaining. Also on record: In vitro kinase panel profiling, per cent remaining kinase activity at 10 uM.
Text: as §2

The test system of another series is SARS-CoV-2. As to the kind of experiment: Antiviral effect in iPSC-derived pneumocyte system. Conditions: iPSC pneumocytes SARS-CoV-2 antiviral effect; for perc_max_measured: maximum measured response of dose series. It is filed as cell-based.
The next series in a line: in vitro. The settings on record: human.
In another series the target is SARS-CoV-2 nsp3-mac1 (Severe acute respiratory syndrome coronavirus 2, UniProt P0DTD1). Briefly: biochemical. Conditions: IC50, nsp3-mac1 activity, Figures 1-3 and text.
A further series addresses T3, MAO-A (Rattus norvegicus, UniProt P21396).
T3 construct: purchased Eurofins Cerep (SafetyScreen44), recognised from the panel format
T3 sequence (P21396 1-526): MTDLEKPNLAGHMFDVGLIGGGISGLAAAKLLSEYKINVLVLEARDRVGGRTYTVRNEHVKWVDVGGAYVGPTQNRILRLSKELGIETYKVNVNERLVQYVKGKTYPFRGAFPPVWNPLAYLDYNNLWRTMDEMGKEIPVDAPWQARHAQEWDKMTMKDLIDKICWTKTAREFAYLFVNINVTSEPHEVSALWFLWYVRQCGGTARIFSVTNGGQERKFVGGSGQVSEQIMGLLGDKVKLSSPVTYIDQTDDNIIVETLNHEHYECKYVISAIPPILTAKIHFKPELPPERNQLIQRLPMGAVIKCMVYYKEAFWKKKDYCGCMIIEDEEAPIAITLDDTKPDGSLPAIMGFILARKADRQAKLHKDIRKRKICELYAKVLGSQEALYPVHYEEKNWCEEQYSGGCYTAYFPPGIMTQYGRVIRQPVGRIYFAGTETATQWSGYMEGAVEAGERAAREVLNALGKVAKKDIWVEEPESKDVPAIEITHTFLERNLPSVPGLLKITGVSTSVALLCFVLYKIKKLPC
Briefly: In vitro CEREP profiling, MAO-A (antagonist radioligand). The series is classed as binding. The settings on record: test compound concentration 10 uM. The source says:
(§3) Supplement media-1.zip/Safety_Panel_Profile.csv, table | column: perc_inhibition

Another series concerns the target T4, 5-HT1B (h) (Homo sapiens, UniProt P28222).
T4 construct: purchased Eurofins Cerep (SafetyScreen44), recognised from the panel format
Briefly: In vitro CEREP profiling, 5-HT1B (h) (antagonist radioligand). The settings on record: test compound concentration 10 uM. It is filed as binding.
Text: as §3

The target in a further series is T5, dopamine transporter (h) (Homo sapiens, UniProt Q01959).
T5 construct: purchased Eurofins Cerep (SafetyScreen44), recognised from the panel format
As to the kind of experiment: In vitro CEREP profiling, dopamine transporter (h) (antagonist radioligand). The series is classed as binding. Conditions: test compound concentration 10 uM.
Text: as §3

The target in the next series is T6, CB2 (h) (Homo sapiens, UniProt P34972).
T6 construct: purchased Eurofins Cerep (SafetyScreen44), recognised from the panel format
Briefly: In vitro CEREP profiling, CB2 (h) (agonist radioligand). It is filed as binding. Conditions: test compound 10 uM.
Text: as §3

Another series deals with T7, delta (DOP) (h) (Homo sapiens, UniProt P41143).
T7 construct: purchased Eurofins Cerep (SafetyScreen44), recognised from the panel format
As to the kind of experiment: In vitro CEREP profiling, delta (DOP) (h) (agonist radioligand). It is filed as binding. Conditions: test compound concentration 10 uM.
Text: as §3

In series [1] the test system is Ca2+ channel (L, dihydropyridine site). Briefly: In vitro CEREP profiling, Ca2+ channel (L, dihydropyridine site) (antagonist radioligand). It is filed as binding. The settings on record: test compound concentration 10 uM.
Text: as §3

A further series concerns the target T8, 5-HT1A (h) (Homo sapiens, UniProt P08908).
T8 construct: purchased Eurofins Cerep (SafetyScreen44), recognised from the panel format
T8 sequence (P08908 1-422): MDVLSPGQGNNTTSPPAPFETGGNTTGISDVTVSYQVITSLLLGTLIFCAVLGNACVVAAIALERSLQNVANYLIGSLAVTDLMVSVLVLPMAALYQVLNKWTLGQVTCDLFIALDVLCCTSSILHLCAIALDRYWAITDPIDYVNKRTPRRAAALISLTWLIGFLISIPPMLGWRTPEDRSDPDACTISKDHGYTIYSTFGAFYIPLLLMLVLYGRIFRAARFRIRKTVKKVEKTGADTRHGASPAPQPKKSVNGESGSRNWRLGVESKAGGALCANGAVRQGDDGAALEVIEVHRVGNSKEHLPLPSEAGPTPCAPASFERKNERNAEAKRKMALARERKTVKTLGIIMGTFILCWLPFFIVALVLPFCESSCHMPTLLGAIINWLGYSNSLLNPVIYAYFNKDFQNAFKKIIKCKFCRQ
Briefly: In vitro CEREP profiling, 5-HT1A (h) (agonist radioligand). The series is classed as binding. Conditions: test compound concentration 10 uM.
Text: as §3

The next series concerns Vero E6/TMPRSS2. As to the kind of experiment: Vero E6/TMPRSS2 cytotoxicity with P-gp inhibitor. The series is classed as cell-based. Conditions: for perc_max_measured: highest measured response of the dose series; for perc_min_measured: lowest measured response of the dose series.
Text: as §1

[2] abbreviates: protocol iPSC pneumocytes cytotoxicity.

T5 sequence (Q01959 whole entry): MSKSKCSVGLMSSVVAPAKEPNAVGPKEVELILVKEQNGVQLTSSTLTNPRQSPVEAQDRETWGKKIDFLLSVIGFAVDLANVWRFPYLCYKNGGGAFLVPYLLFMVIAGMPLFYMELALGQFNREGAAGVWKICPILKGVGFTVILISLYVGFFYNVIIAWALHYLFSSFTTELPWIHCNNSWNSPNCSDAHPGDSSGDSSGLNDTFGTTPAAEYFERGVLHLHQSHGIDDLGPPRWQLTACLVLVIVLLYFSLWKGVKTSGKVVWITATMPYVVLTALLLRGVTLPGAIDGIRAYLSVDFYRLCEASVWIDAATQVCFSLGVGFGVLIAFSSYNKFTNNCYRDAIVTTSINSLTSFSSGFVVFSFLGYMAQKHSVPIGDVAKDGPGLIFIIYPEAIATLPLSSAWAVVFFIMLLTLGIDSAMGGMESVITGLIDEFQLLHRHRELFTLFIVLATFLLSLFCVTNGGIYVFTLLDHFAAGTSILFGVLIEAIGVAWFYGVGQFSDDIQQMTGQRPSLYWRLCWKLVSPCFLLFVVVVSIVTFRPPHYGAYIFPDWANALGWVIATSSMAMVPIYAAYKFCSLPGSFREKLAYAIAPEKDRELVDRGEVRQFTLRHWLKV
T2 sequence (P49137 whole entry): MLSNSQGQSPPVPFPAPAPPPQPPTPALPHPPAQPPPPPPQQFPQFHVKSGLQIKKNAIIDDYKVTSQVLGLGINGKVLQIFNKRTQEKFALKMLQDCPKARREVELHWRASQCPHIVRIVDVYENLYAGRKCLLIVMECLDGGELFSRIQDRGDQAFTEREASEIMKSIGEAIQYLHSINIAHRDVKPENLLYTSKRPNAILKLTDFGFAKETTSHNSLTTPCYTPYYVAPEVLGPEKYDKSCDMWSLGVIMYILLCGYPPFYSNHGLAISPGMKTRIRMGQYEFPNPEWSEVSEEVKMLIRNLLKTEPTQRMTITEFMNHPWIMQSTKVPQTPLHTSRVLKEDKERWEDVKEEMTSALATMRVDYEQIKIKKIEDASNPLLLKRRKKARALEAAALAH
T4 sequence (P28222 whole entry): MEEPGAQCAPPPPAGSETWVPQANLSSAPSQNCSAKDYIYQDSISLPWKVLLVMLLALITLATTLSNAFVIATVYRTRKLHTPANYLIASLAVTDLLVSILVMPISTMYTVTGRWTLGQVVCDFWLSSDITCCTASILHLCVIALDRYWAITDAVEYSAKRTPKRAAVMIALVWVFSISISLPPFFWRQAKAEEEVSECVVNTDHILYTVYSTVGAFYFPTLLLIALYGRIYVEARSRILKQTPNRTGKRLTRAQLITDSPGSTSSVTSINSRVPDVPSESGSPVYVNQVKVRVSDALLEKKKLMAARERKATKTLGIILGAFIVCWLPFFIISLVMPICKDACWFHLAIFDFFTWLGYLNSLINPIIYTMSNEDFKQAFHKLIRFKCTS
T7 sequence (P41143 whole entry): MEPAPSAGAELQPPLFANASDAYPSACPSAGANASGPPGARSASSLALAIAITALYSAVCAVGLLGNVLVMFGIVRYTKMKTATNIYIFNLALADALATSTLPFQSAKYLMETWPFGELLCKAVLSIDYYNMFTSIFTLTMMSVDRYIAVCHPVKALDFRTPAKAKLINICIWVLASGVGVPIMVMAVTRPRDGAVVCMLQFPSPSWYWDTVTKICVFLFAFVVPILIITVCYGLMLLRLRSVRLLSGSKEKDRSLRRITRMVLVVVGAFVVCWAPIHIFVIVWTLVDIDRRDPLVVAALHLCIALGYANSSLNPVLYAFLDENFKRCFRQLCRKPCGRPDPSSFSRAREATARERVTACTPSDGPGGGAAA
T6 sequence (P34972 whole entry): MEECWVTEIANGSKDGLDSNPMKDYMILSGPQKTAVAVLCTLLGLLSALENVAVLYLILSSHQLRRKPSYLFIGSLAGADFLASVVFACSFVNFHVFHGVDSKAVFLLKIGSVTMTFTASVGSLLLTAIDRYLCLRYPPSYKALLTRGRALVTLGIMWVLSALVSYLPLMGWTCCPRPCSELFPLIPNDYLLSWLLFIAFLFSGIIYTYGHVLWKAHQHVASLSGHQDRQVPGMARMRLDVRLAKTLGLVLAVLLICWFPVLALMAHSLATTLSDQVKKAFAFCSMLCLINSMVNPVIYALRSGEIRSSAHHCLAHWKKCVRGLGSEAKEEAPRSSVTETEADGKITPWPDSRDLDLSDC

For the molecule `CC(C)C(Nc1ncnc2[nH]ccc12)c1ccc2c(c1)S(=O)(=O)CCC2` (stereo not shown) [ASAP-0008327], in the series on MDR1, the Papp A→B – broadly, the apparent permeability from the apical to the basolateral side of a cell layer – amounted to 3.3 ×10⁻⁶ cm/s. In the series with iPSC pneumocytes (setting [2]), this molecule showed a cc10 greater than 50.0 µM. Also, the perc_max_measured with iPSC pneumocytes (setting [2]) is 97.729% and 94.012%; with SARS-CoV-2, 138.005% and 187.741%. For the same molecule, in the series with iPSC pneumocytes (setting [2]), the perc_min_measured is 81.556% and 88.355%. In addition, the remaining activity at 10 µM was 104% at PKCα(h) (batch_name=ASAP-0008327-001) and 105% on MAPKAP-K2(h) (batch_name=ASAP-0008327-001). The EC50 (commonly the concentration giving half of the maximal effect) is greater than 50 µM in the series with SARS-CoV-2 (Severe acute respiratory syndrome coronavirus 2, iPSC) and 29.9 µM in the series with SARS-CoV-2. The EC90 (usually the point of the concentration-response curve where the effect stands at 90%) with SARS-CoV-2 (Severe acute respiratory syndrome coronavirus 2) was greater than 50 µM. The same molecule came in with a CC50 in “in vitro” greater than 50 µM. Moreover, half-maximal inhibition on SARS-CoV-2 nsp3-mac1 (IC50) required 0.14 µM.

With `COc1ccc([C@@H](Cc2nnn[nH]2)NC(=O)c2ncnc3[nH]ccc23)cc1` [ASAP-0008340], the remaining activity at 10 µM on PKCα(h) (batch_name=ASAP-0008340-001) was determined as 95%; at MAPKAP-K2(h) (batch_name=ASAP-0008340-001), 92%.

Regarding `CC(C)[C@H](Nc1ncnc2[nH]ccc12)c1ccc2c(c1)S(=O)(=O)CCC2` [ASAP-0008674], the “perc_inhibition (% inhibition of the binding of a ligand specific for each target)” value on MAO-A was 7%; on 5-HT1B (h), 0%; at dopamine transporter (h) it was 27%; at CB2 (h) it was -13%; on delta (DOP) (h), 30%; in series [1] it was 12%. For the same molecule, the “perc_inhibition (% inhibition of the binding of a ligand specific for each target)” value on 5-HT1A (h) came to 12%. The values for the remaining activity at 10 µM at PKCα(h) (batch_name=ASAP-0008674-002) and at MAPKAP-K2(h) (batch_name=ASAP-0008674-002) were 98% and 106%, respectively. In the series on Vero E6/TMPRSS2, the CC50 is greater than 5 µM. The molecule further returned a cc10 with Vero E6/TMPRSS2 greater than 5.0 µM. Further, the perc_max_measured in the series with Vero E6/TMPRSS2 is 135.379% and 119.601%. In addition, in the series with Vero E6/TMPRSS2, the perc_min_measured was 95.549% and 105.983%.

For the molecule `CC(C)[C@H](Nc1ncnc2[nH]c(-c3cnn(C)c3C#N)cc12)c1ccc2c(n1)OCCO2` [ASAP-0010715], the “perc_inhibition (% inhibition of the binding of a ligand specific for each target)” value at MAO-A is 4%; at 5-HT1B (h), -11%; on dopamine transporter (h), 29%; on CB2 (h), 44%; on delta (DOP) (h) it was 58%; in series [1], 9%. For the same molecule, the “perc_inhibition (% inhibition of the binding of a ligand specific for each target)” value on 5-HT1A (h) is on record as 43%. For the same molecule, the remaining activity at 10 µM on MAPKAP-K2(h) (batch_name=ASAP-0010715-002) was 115%. The same molecule showed a CC50 in the series on Vero E6/TMPRSS2 greater than 5 µM. Moreover, the cc10 in the series with Vero E6/TMPRSS2 was greater than 5.0 µM. In the series with Vero E6/TMPRSS2, this molecule showed a perc_max_measured of 109.412%. This molecule also came in with a perc_min_measured with Vero E6/TMPRSS2 of 72.414%.

With `CC(C)[C@@H](Nc1ncnc2[nH]c(-c3cnn(C)c3C#N)cc12)c1ccc2c(n1)OCCO2` [ASAP-0010716], the “perc_inhibition (% inhibition of the binding of a ligand specific for each target)” value is listed as 8% at MAO-A; 4% on 5-HT1B (h); 30% at dopamine transporter (h); 16% on CB2 (h); 71% on delta (DOP) (h); 10% in [1]. At 5-HT1A (h), the “perc_inhibition (% inhibition of the binding of a ligand specific for each target)” value came out at 22%. In addition, the figures for the remaining activity at 10 µM at PKCα(h) (batch_name=ASAP-0010716-002) and at MAPKAP-K2(h) (batch_name=ASAP-0010716-002) were 99% and 114%, respectively. Moreover, the CC50 in the series with Vero E6/TMPRSS2 is greater than 5 µM. Also, in the series with Vero E6/TMPRSS2, the cc10 is greater than 5.0 µM. In the series on Vero E6/TMPRSS2, this molecule returned a perc_max_measured of 116.627%. The molecule further showed a perc_min_measured with Vero E6/TMPRSS2 of 99.207%.

In the case of `CNCc1cc(-c2cc3c(N[C@@H](c4ccc5c(c4)S(=O)(=O)CCC5)C(C)C)ncnc3[nH]2)co1` [ASAP-0011176], the “perc_inhibition (% inhibition of the binding of a ligand specific for each target)” value is 11% on MAO-A; 45% at 5-HT1B (h); 50% on dopamine transporter (h); -8% on CB2 (h); 53% at delta (DOP) (h); -3% in [1]. Also, at 5-HT1A (h), the “perc_inhibition (% inhibition of the binding of a ligand specific for each target)” value amounted to 6%. Moreover, the CC50 with iPSC pneumocytes is greater than 50 µM; in the series with Vero E6/TMPRSS2 it was greater than 5 µM. Further, the cc10 was greater than 50.0 µM in the series on iPSC pneumocytes and greater than 5.0 µM in the series with Vero E6/TMPRSS2. Besides, the perc_max_measured is on record as 97.309% with iPSC pneumocytes, 92.989% in the series on SARS-CoV-2 and 117.999% with Vero E6/TMPRSS2. The values for the perc_min_measured in the series with iPSC pneumocytes, in the series on SARS-CoV-2 (minimum measured response of dose series) and with Vero E6/TMPRSS2 were 86.868%, 2.106% and 102.841%, respectively. Moreover, the remaining activity at 10 µM at PKCα(h) (batch_name=ASAP-0011176-002) was determined as 99%; at MAPKAP-K2(h) (batch_name=ASAP-0011176-002) it was 106%. The midpoint of the response in the series with SARS-CoV-2, the EC50, lay at 3.34 µM. For the same molecule, the EC90 in the series with SARS-CoV-2 is greater than 50 µM.
